One may read the EC50 as the concentration giving half of the maximal effect.

Where two headings read alike, the source gives them in different places.

One data set deals with HBV. The data set can be described thus: Efficacy of HBV RNAi agents in HepG2.2.15 cells in vitro (sAg KD). As to conditions: for Max % KD, EXPERIMENT 1 / Max % KD, EXPERIMENT 2: percent knockdown; for Percent sAg remaining at maximum knockdown: percent residual gene activity. In kind it is cell-based, Hepatitis B Virus. As to the method: Table 9. Efficacy of HBV RNAi agents.
The efficacy of various HBV RNAi agents was tested in HepG2.2.15 cells in vitro. 10 μM was used. […] It is noted that, due to the nature of the HepG2.2.15 cell line, it is difficult to achieve greater than 50% knockdown.

A short description of data set [1]: Serum stability of siRNAs with 3′ end caps in mouse serum. In kind it is in vitro ADME. The settings on record: 100% mouse serum; 37° C.; up to 24 h; gel, SYBR gold.
Data set [2] in a line: Serum stability of siRNAs with 3′ end caps in human serum. In kind it is in vitro ADME. The settings on record: 100% human serum; 37° C.; up to 24 h; gel, SYBR gold.
The subject of a further data set is FVII (Factor VII). The data set can be described thus: RNA interference against FVII by 19-mer siRNAs with 3′ end caps (FIG. 2). More on the design: species or system mouse. The settings on record: mF7-III 19-mer blunt-ended, A12S17.
The mark [3] stands for this setting: Experiment 2, HepG2.2.15 cells, nM printed only at the Experiment 1 and AVERAGE EC50 heads, read-out: EC50, EXPERIMENT 2.
The mark [4] stands for this setting: HepG2.2.15 cells in vitro, Experiment 1, read-out: EC50 (nM), EXPERIMENT 1.
[5] abbreviates: average of Experiments 1 and 2, read-out: EC50 (nM), AVERAGE.

Take “5: "One sequence used was designated siHBV_1599_18mer_CAM, and corresponds to Number 5 in Table 8E" (sense CCGUGUGCACUUCGCUUCA; antisense UGAAGCGAAGUGCACACGG; chemistry not given here)”: the “Max % KD, EXPERIMENT 1” value in the data set with HBV (Experiment 1, HepG2.2.15 cells) is 41.3%. For the same compound, the “Percent sAg remaining at maximum knockdown” value (“Percent sAg remaining” below) in the data set with HBV (Experiment 1, HepG2.2.15 cells) amounted to 58.7%; in the data set with HBV (Experiment 2, HepG2.2.15 cells) it was 62.2%. For the same compound, the EC50 was 0.013 nM with HBV (setting [3]), 0.127 nM in the data set on HBV (setting [4]) and 0.07 nM in the data set with HBV (setting [5]). In addition, the “Max % KD, EXPERIMENT 2” value in the data set with HBV (Experiment 2, HepG2.2.15 cells) amounted to 37.8%. The “Max % KD, AVERAGE” value in the data set on HBV (average of Experiments 1 and 2) came to 39.55%.

“4: "HBV RNAi agents numbered 1 to 10"; "The RNAi agents used are listed in Table 8E" (18-mer format) (sense GAGGCUGUAGGCAUAAAUU; antisense AAUUUAUGCCUACAGCCUC; chemistry not given here) [Number 4]”: the “Max % KD, EXPERIMENT 1” value with HBV (Experiment 1, HepG2.2.15 cells) is listed as 43.3%. The “Percent sAg remaining” value is on record as 56.7% in the data set on HBV (Experiment 1, HepG2.2.15 cells) and 51.4% in the data set with HBV (Experiment 2, HepG2.2.15 cells). Further, the EC50 in the data set on HBV (setting [3]) was 0.056 nM; with HBV (setting [4]) it was 0.017 nM; with HBV (setting [5]), 0.04 nM. In addition, the “Max % KD, EXPERIMENT 2” value with HBV (Experiment 2, HepG2.2.15 cells) is recorded as 48.6%. Besides, the “Max % KD, AVERAGE” value in the data set with HBV (average of Experiments 1 and 2) is 45.95%.

Consider `c1ccc(-c2ccccc2)cc1` [Biphenyl], for which, in data set [1], the “stability in mouse serum” value is “increased stability”. Moreover, in data set [2], the “stability in human serum” value was “increased stability”. The “RNA interference against FVII” value with FVII (Factor VII) was “allow the RNAi agent to perform RNA interference”.

Turning to “11: "An 18-mer ... with the sequences of Number 11E in Table 10"; "an additional HBV RNAi agent, HBV 279" (sense GGUUCUUCUGGAUUAUCAA; antisense UUGAUAAUCCAGAAGAACC; chemistry not given here)”, the “Max % KD, EXPERIMENT 1” value in the data set with HBV (Experiment 1, HepG2.2.15 cells) was found to be 65.39%. Besides, the “Percent sAg remaining” value in the data set on HBV (Experiment 1, HepG2.2.15 cells) is recorded as 34.61%; in the data set on HBV (Experiment 2, HepG2.2.15 cells) it was 46%. Further, the EC50 with HBV (setting [3]) was 0.105 nM; in the data set with HBV (setting [4]), 0.039 nM; in the data set with HBV (setting [5]), 0.07 nM. Besides, in the data set with HBV (Experiment 2, HepG2.2.15 cells), the “Max % KD, EXPERIMENT 2” value stood at 54%. Moreover, the “Max % KD, AVERAGE” value in the data set on HBV (average of Experiments 1 and 2) was 59.695%.

In the case of “10: "HBV RNAi agents numbered 1 to 10"; "The RNAi agents used are listed in Table 8E" (18-mer format) (sense GAGAUUAGGUUAAAGGUCU; antisense AGACCUUUAACCUAAUCUC; chemistry not given here) [Number 10]”, in the data set on HBV (Experiment 1, HepG2.2.15 cells), the “Max % KD, EXPERIMENT 1” value came out at 57.3%. Also, the “Percent sAg remaining” value was 42.7% with HBV (Experiment 1, HepG2.2.15 cells) and 49.1% in the data set on HBV (Experiment 2, HepG2.2.15 cells). Also, the EC50 was 0.437 nM in the data set on HBV (setting [3]), 0.066 nM with HBV (setting [4]) and 0.25 nM in the data set on HBV (setting [5]). In the data set on HBV (Experiment 2, HepG2.2.15 cells), the “Max % KD, EXPERIMENT 2” value came to 50.9%. The “Max % KD, AVERAGE” value in the data set on HBV (average of Experiments 1 and 2) turned out to be 54.1%.

On to “12: "Twelve of the best HBV RNAi agents identified are listed below, in various formats, in Tables 8A-8E, 9 and 10" (sense GGACUUCUCUCAAUUUUCU; antisense AGAAAAUUGAGAGAAGUCC; chemistry not given here) [Number 12]”, for which, in the data set with HBV (Experiment 1, HepG2.2.15 cells), the “Max % KD, EXPERIMENT 1” value is listed as 36.89% and the “Percent sAg remaining” value was found to be 63.11%. Moreover, the EC50 with HBV (setting [4]) stood at 0.093 nM. The “Max % KD, AVERAGE” value with HBV (average of Experiments 1 and 2) is reported as 36.89%. Also, the EC50 in the data set with HBV (setting [5]) was 0.093 nM.

For `OCCOCCOCCO` [Triethylene glycol], the “RNA interference against FVII” value in the data set on FVII (Factor VII) is given as “allow the RNAi agent to perform RNA interference”.

For the compound `OCCOCCOCCO` [glycol, triethylene glycol], in data set [1], the “stability in mouse serum” value is given as “increased stability”. Besides, the “stability in human serum” value in data set [2] is “increased stability”.

In the case of “8: "HBV RNAi agents numbered 1 to 10"; "The RNAi agents used are listed in Table 8E" (18-mer format) (sense CAGCAAUGUCAACGACCGA; antisense UCGGUCGUUGACAUUGCUG; chemistry not given here) [Number 8]”, the “Max % KD, EXPERIMENT 1” value in the data set with HBV (Experiment 1, HepG2.2.15 cells) is 37.5%. Besides, the “Percent sAg remaining” value was found to be 62.5% in the data set on HBV (Experiment 1, HepG2.2.15 cells) and 42.2% in the data set with HBV (Experiment 2, HepG2.2.15 cells). Moreover, the concentration giving a half-maximal response (EC50) is 0.177 nM in the data set on HBV (setting [3]), 0.025 nM in the data set on HBV (setting [4]) and 0.1 nM with HBV (setting [5]). The “Max % KD, EXPERIMENT 2” value in the data set on HBV (Experiment 2, HepG2.2.15 cells) was 57.8%. In addition, the “Max % KD, AVERAGE” value with HBV (average of Experiments 1 and 2) came out at 47.65%.

In the case of “3: "HBV RNAi agents numbered 1 to 10"; "The RNAi agents used are listed in Table 8E" (18-mer format) (sense CCAUACUGCGGAACUCCUA; antisense UAGGAGUUCCGCAGUAUGG; chemistry not given here) [Number 3]”, the “Max % KD, EXPERIMENT 1” value in the data set on HBV (Experiment 1, HepG2.2.15 cells) is recorded as 49.8%. Besides, the “Percent sAg remaining” value with HBV (Experiment 1, HepG2.2.15 cells) was determined as 50.2%; in the data set with HBV (Experiment 2, HepG2.2.15 cells) it was 61.3%. In addition, the EC50 worked out at 0.016 nM in the data set on HBV (setting [3]), 0.111 nM in the data set on HBV (setting [4]) and 0.06 nM in the data set on HBV (setting [5]). In addition, the “Max % KD, EXPERIMENT 2” value in the data set with HBV (Experiment 2, HepG2.2.15 cells) is 38.7%. Besides, the “Max % KD, AVERAGE” value with HBV (average of Experiments 1 and 2) came to 44.25%.

Turning to “9: "HBV RNAi agents numbered 1 to 10"; "The RNAi agents used are listed in Table 8E" (18-mer format) (sense GGAGGCUGUAGGCAUAAAU; antisense AUUUAUGCCUACAGCCUCC; chemistry not given here) [Number 9]”, in the data set on HBV (Experiment 1, HepG2.2.15 cells), the “Max % KD, EXPERIMENT 1” value came out at 48.8%. Also, the “Percent sAg remaining” value in the data set on HBV (Experiment 1, HepG2.2.15 cells) came out at 51.2%; in the data set with HBV (Experiment 2, HepG2.2.15 cells) it was 50%. Moreover, the EC50 turned out to be 0.67 nM in the data set with HBV (setting [3]), 0.131 nM with HBV (setting [4]) and 0.4 nM in the data set with HBV (setting [5]). In the data set with HBV (Experiment 2, HepG2.2.15 cells), the “Max % KD, EXPERIMENT 2” value was found to be 50%. The “Max % KD, AVERAGE” value in the data set with HBV (average of Experiments 1 and 2) was 49.4%.

With “6: "HBV RNAi agents numbered 1 to 10"; "The RNAi agents used are listed in Table 8E" (18-mer format) (sense GGCUGUAGGCAUAAAUUGG; antisense CCAAUUUAUGCCUACAGCC; chemistry not given here) [Number 6]”, the “Max % KD, EXPERIMENT 1” value in the data set on HBV (Experiment 1, HepG2.2.15 cells) is recorded as 37.3%. The “Percent sAg remaining” value with HBV (Experiment 1, HepG2.2.15 cells) turned out to be 62.7%; with HBV (Experiment 2, HepG2.2.15 cells), 61%. In addition, the values for the EC50 with HBV (setting [3]), with HBV (setting [4]) and in the data set on HBV (setting [5]) were 0.13 nM, 0.008 nM and 0.07 nM, respectively. Further, the “Max % KD, EXPERIMENT 2” value with HBV (Experiment 2, HepG2.2.15 cells) turned out to be 39%. The “Max % KD, AVERAGE” value with HBV (average of Experiments 1 and 2) is listed as 38.15%.

For the compound “7: "HBV RNAi agents numbered 1 to 10"; "The RNAi agents used are listed in Table 8E" (18-mer format) (sense GCUGUAGGCAUAAAUUGGU; antisense ACCAAUUUAUGCCUACAGC; chemistry not given here) [Number 7]”, the “Max % KD, EXPERIMENT 1” value with HBV (Experiment 1, HepG2.2.15 cells) is reported as 41.5%. In addition, the “Percent sAg remaining” value in the data set on HBV (Experiment 1, HepG2.2.15 cells) turned out to be 58.5%; in the data set on HBV (Experiment 2, HepG2.2.15 cells), 59.7%. Besides, the figures for the EC50 in the data set on HBV (setting [3]), with HBV (setting [4]) and with HBV (setting [5]) were 0.409 nM, 0.038 nM and 0.22 nM, respectively. Moreover, the “Max % KD, EXPERIMENT 2” value with HBV (Experiment 2, HepG2.2.15 cells) amounted to 40.3%. The “Max % KD, AVERAGE” value with HBV (average of Experiments 1 and 2) worked out at 40.9%.

Consider `C1C2CC3CC1CC(C2)C3` [Adamantane], for which, in the data set on FVII (Factor VII), the “RNA interference against FVII” value is “allow the RNAi agent to perform RNA interference”.

`C[C@H](CCC(=O)O)[C@H]1CC[C@H]2[C@@H]3CC[C@@H]4C[C@H](O)CC[C@]4(C)[C@H]3CC[C@]12C` [lithochol, lithocholic acid]: the “stability in mouse serum” value in data set [1] is recorded as “increased stability”. For the same compound, the “stability in human serum” value in data set [2] was “less stable”.

(Values after US10519446B2, “Organic compounds to treat hepatitis B virus” (priority 2013, dated 2019).)
